Assay results as given in patent US7495104B2, “Quinoline or quinazoline derivatives inhibiting auto-phosphorylation of fibroblast growth factor receptors” (Kirin Beer Kabushiki Kaisha, priority 2001, dated 2009).
Where a name gives a salt, the structure may show the parent alone.

molecular target: Bek (Homo sapiens, UniProt P21802); test: Inhibitory activity against Bek-autophosphorylation using ELISA method in OCUM-2MD3 cells; type: cell-based; conditions: 1 hr with compound, read-out: IC50 (concentration necessary for inhibiting 50% of Bek-phosphorylation)
How it was run: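 Sandwich ELISA (anti-phosphotyrosine capture, anti-Bek detection, peroxidase, 450 nm) measured Bek autophosphorylation in OCUM-2MD3 lysates after 1 hr compound treatment at 37° C in 0.1% serum medium. IC50 derived by scaling between no-drug (100%) and excess positive control at 1000 nM (0%).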

Sequence of Bek (P21802 431-767 limits assumed): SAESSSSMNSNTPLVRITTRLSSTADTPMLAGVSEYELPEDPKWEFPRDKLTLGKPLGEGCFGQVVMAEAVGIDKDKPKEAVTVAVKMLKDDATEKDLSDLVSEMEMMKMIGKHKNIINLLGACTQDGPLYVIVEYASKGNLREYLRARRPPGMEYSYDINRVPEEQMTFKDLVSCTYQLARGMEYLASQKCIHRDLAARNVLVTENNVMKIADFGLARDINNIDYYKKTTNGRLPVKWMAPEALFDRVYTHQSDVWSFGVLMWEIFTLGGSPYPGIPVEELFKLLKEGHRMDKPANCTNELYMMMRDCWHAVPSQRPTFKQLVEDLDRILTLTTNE

SMILES	IC50 [nM]
COc1cc2c(Oc3ccc(NC(=O)NCCC(C)(C)C)cc3)ccnc2cc1OCCCCN1CCOCC1 [Compound 158, 1-(3,3-Dimethyl-butyl)-3-{4-[6-methoxy-7-(4-morpholin-4-yl-butoxy)-quinolin-4-yloxy]-phenyl}-urea hydrochloride]	32.1
CCCCc1ccc(Nc2ccc(Oc3ccnc4cc(OC)c(OC)cc34)cc2)cc1 [Compound 8, (4-Butylphenyl)-[4-(6,7-dimethoxyquinolin-4-yloxy)phenyl]amine]	1500
CCCN1CCC(COc2cc3nccc(Oc4ccc(Nc5ccc(C(C)(C)C)cc5)cc4)c3cc2OC)CC1 [Compound 42, (4-Tert-butylphenyl)-{4-[6-methoxy-7-(1-propylpiperidin-4-ylmethoxy)quinolin-4-yloxy]phenyl}amine]	399
COc1cc2c(Oc3ccc(Nc4ccc(C(C)(C)C)cc4)cc3)ccnc2cc1OCCN(CCO)CCO [Compound 48, 2-[(2-{4-[4-(4-Tert-butyl-phenylamino)phenoxy]-6-methoxy-quinolin-7-yloxy}ethyl)-(2-hydroxyethyl)amino]ethanol]	33.5
COc1cc2c(Oc3ccc(Nc4ccc(C(C)(C)C)cc4)cc3)ccnc2cc1OCCC1CCCN1C (stereo not drawn) [Compound 27, (4-Tert-butylphenyl)-(4-{6-methoxy-7-[2-(1-methylpyrrolidin-2-yl)ethoxy]quinolin-4-yloxy}phenyl)amine]	2520
COc1cc2c(Oc3ccc(Nc4ccc(C(C)(C)C)cc4)cc3)ccnc2cc1OCCN1CCN(C)CC1 [Compound 33, (4-Tert-butylphenyl)-(4-{6-methoxy-7-[2-(4-methylpiperazin-1-yl)ethoxy]quinolin-4-yloxy}phenyl)amine]	155
COc1cc2c(Oc3ccc(Nc4ccc(C(C)(C)C)cc4)cc3)ccnc2cc1OCCCN1CCC(CO)CC1 [Compound 217, [1-(3-{4-[4-(4-Tert-butyl-phenylamino)-phenoxy]-6-methoxy-quinolin-7-yloxy}-propyl)-piperidin-4-yl]-methanol]	40.9

More lines, now with the values ahead:

IC50 [nM]	SMILES
39	COc1cc2c(Oc3ccc(NC(=O)NCCC(C)(C)C)c(Cl)c3)ccnc2cc1OCCN(C)C [Compound 166, 1-{2-Chloro-4-[7-(2-dimethylamino-ethoxy)-6-methoxy-quinolin-4-yloxy]-phenyl}-3-(3,3-dimethyl-butyl)-urea]
254	COc1cc2c(Oc3ccc(Nc4ccc(C(C)(C)C)cc4)c(F)c3)ccnc2cc1OCCN1CCC(O)CC1 [Compound 287, 1-(2-{4-[4-(4-Tert-butyl-phenylamino)-3-fluoro-phenoxy]-6-methoxy-quinolin-7-yloxy}-ethyl)-piperidin-4-ol]
< 10	CCN(CCO)CCCOc1cc2nccc(Oc3ccc(NC(=O)NCCC(C)(C)C)cc3)c2cc1OC [Compound 343, 1-(3,3-Dimethyl-butyl)-3-[4-(7-{3-[ethyl-(2-hydroxy-ethyl)-amino]-propoxy}-6-methoxy-quinolin-4-yloxy)-phenyl]-urea]
161	COc1cc2c(Oc3ccc(NC(=O)NCCC(C)(C)C)c(F)c3)ccnc2cc1OCCN1C(C)(C)CCCC1(C)C [Compound 131, 1-(3,3-Dimethyl-butyl)-3-(2-fluoro-4-{6-methoxy-7-[2-(2,2,6,6-tetramethyl-piperidin-1-yl)-ethoxy]-quinolin-4-yloxy}-phenyl)-urea]
31.6	COc1cc2c(Oc3ccc(NC(=O)NCCC(C)(C)C)c(Cl)c3)ccnc2cc1OCCN1CCC(CO)CC1 [Compound 275, 1-(2-Chloro-4-{7-[2-(4-hydroxymethyl-piperidin-1-yl)-ethoxy]-6-methoxy-quinolin-4-yloxy}-phenyl)-3-(3,3-dimethyl-butyl)-urea]
26.7	COc1cc2c(Oc3ccc(NC(=O)NCCC(C)(C)C)c(Cl)c3)ccnc2cc1OCCCN1CCC(CCO)CC1 [Compound 267, 1-[2-Chloro-4-(7-{3-[4-(2-hydroxy-ethyl)-piperidin-1-yl]-propoxy}-6-methoxy-quinolin-4-yloxy)-phenyl]-3-(3,3-dimethyl-butyl)-urea]
234	COc1cc2c(Oc3ccc(NC(=O)NCCC(C)(C)C)c(F)c3)ccnc2cc1OCCCCl [Compound 204, 1-{4-[7-(3-Chloro-propoxy)-6-methoxy-quinolin-4-yloxy]-2-fluoro-phenyl}-3-(3,3-dimethyl-butyl)-urea]
33.2	COCCNCCCOc1cc2nccc(Oc3ccc(NC(=O)NCCC(C)(C)C)cc3)c2cc1OC [Compound 271, 1-(3,3-Dimethyl-butyl)-3-(4-{6-methoxy-7-[3-(2-methoxy-ethylamino)-propoxy]-quinolin-4-yloxy}-phenyl)-urea]
37	COc1cc2c(Oc3ccc(NC(=O)NCCC(C)(C)C)cc3)ccnc2cc1OCCN(C)CCO [Compound 328, 1-(3,3-Dimethyl-butyl)-3-[4-(7-{2-[(2-hydroxy-ethyl)-methyl-amino]-ethoxy}-6-methoxy-quinolin-4-yloxy)-phenyl]-urea]
76.5	COc1cc2nccc(Oc3ccc(Nc4ccc(N5CCOCC5)cc4)cc3)c2cc1OC [Compound 44, [4-(6,7-Dimethoxyquinolin-4-yloxy)phenyl]-(4-morpholin-4-ylphenyl)amine]
< 10	COc1cc2c(Oc3ccc(NC(=O)NCCC(C)(C)C)c(F)c3)ccnc2cc1OCC(O)CN1CCOCC1 (stereo not drawn) [Compound 209, 1-(3,3-Dimethyl-butyl)-3-{2-fluoro-4-[7-(2-hydroxy-3-morpholin-4-yl-propoxy)-6-methoxy-quinolin-4-yloxy]-phenyl}-urea]
249	COc1cc2c(Oc3ccc(Nc4ccc(C(C)(C)C)cc4)cc3)ccnc2cc1OCC(O)CN1CCCCC1 (stereo not drawn) [Compound 62, 1-{4-[4-(4-Tert-butyl-phenylamino)phenoxy]-6-methoxyquinolin-7-yloxy}-3-piperidin-1-ylpropan-2-ol]
48.1	COc1cc2c(Oc3ccc(NC(=O)NCCC(C)(C)C)cc3F)ccnc2cc1OCCN1CCCCC1 [Compound 129, 1-(3,3-Dimethyl-butyl)-3-{3-fluoro-4-[6-methoxy-7-(2-piperidin-1-yl-ethoxy)-quinolin-4-yloxy]-phenyl}-urea]

tested on: Human gastric cancer cells (OCUM-2MD3); test: Tumor growth inhibitory activity against human gastric cancer cells (OCUM-2MD3) in nude mice (Pharmacological Test Example 3); type: in vivo; conditions: Mus musculus, 240 h, dose per day 10 mg × 2, oral, read-out: TGIR (tumor growth inhibition rate)
Experimental: Human gastric cancer cells (OCUM-2MD3) (kindly provided by Dr. Kosei Hirakawa, Osaka City University) were transplanted into nude mice. […] The test compound suspended in 0.5% methylcellulose was orally administered every day twice a day for 5 days (except for the first day on which the suspension was administered once a day).
Only 0.5% methylcellulose was administered to the control group in the manner as in the test groups. The tumor growth inhibition rate (TGIR) was calculated as follows: The tumor growth inhibition rate (TGIR)=(1−TX/CX)×100 wherein CX represents the volume of tumor at day X for the control group when the tumor volume at the day of the start of the administration was presumed to be 1; and TX represents the volume of tumor for test compound administration groups.
Tumor growth inhibitory activity was measured in the same manner as in Pharmacological Test Example 2, except that oral administration was carried out once a day or twice a day (except for the first day on which the suspension was administered once a day).

SMILES	inhibition in vivo at 10 mg [%]
COc1cc2c(Oc3ccc(Nc4ccc(C(C)(C)C)cc4)cc3)ccnc2cc1OCC[N+]1([O-])CCOCC1 [Compound 83, 4-{2-[(4-{4-[4-(Tert-butyl)anilino]phenoxy}-6-methoxy-7-quinolyl)-oxy]ethyl}-1,4-oxazinan-4-ium-4-oleate]	34
COc1cc2c(Oc3ccc(Nc4ccc(C(C)(C)C)cc4)cc3Cl)ccnc2cc1OCCN1CCOCC1 [Compound 84, N-[4-(Tert-butyl)phenyl]-N-(3-chloro-4-{[6-methoxy-7-(2-morpholinoethoxy)-4-quinolyl]oxy}phenyl)amine]	33
COc1cc2c(Oc3ccc(Nc4ccc(C(C)(C)C)cc4)cc3)ccnc2cc1OCCNCCO [Compound 85, 2-({2-[(4-{4-[4-(Tert-butyl)anilino]phenoxy}-6-methoxy-7-quinolyl)oxy]ethyl}amino)-1-ethanol]	43
COc1cc2c(Oc3ccc(NC(=O)NCCC(C)(C)C)cc3)ccnc2cc1OCCCN1CCC(CO)CC1 [Compound 94, 1-(3,3-Dimethyl-butyl)-3-(4-{7-[3-(4-hydroxymethyl-piperidin-1-yl)-propoxy]-6-methoxy-quinolin-4-yloxy}-phenyl)-urea]	40
